Measured values published in PubChem BioAssay (NCI).
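At the GI50, growth is halved. TGI denotes the concentration required for complete inhibition of growth.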

Columns and labels:
Experiment in all cases: NCI tumour cell line growth inhibition, 384-well format
786-0 renal = system: 786-0 renal
A498 renal = system: A498 renal
A549 NSCLC = system: A549 NSCLC
ACHN renal = system: ACHN renal
BT-549 breast = system: BT-549 breast
CAKI-1 renal = system: CAKI-1 renal
CCRF-CEM leukemia = system: CCRF-CEM leukemia
COLO 205 colon = system: COLO 205 colon
DU-145 prostate = system: DU-145 prostate
EKVX NSCLC = system: EKVX NSCLC
HCC-2998 colon = system: HCC-2998 colon
HCT-116 colon = system: HCT-116 colon
HCT-15 colon = system: HCT-15 colon
HL-60(TB) leukemia = system: HL-60(TB) leukemia
HOP-62 NSCLC = system: HOP-62 NSCLC
HOP-92 NSCLC = system: HOP-92 NSCLC
HS 578T breast = system: HS 578T breast
HT29 colon = system: HT29 colon
IGROV1 ovarian = system: IGROV1 ovarian
K-562 leukemia = system: K-562 leukemia
KM12 colon = system: KM12 colon
LOX IMVI melanoma = system: LOX IMVI melanoma
M14 melanoma = system: M14 melanoma
MALME-3M melanoma = system: MALME-3M melanoma
MDA-MB-231 breast = system: MDA-MB-231 breast
MDA-MB-435 melanoma = system: MDA-MB-435 melanoma
MDA-MB-468 breast = system: MDA-MB-468 breast
MOLT-4 leukemia = system: MOLT-4 leukemia
NCI-H226 lung = system: NCI-H226 lung
NCI-H23 lung = system: NCI-H23 lung
NCI-H322M lung = system: NCI-H322M lung
NCI-H460 NSCLC = system: NCI-H460 NSCLC
NCI-H522 lung = system: NCI-H522 lung
NCI/ADR-RES ovarian = system: NCI/ADR-RES ovarian
OVCAR-3 ovarian = system: OVCAR-3 ovarian
OVCAR-4 ovarian = system: OVCAR-4 ovarian
OVCAR-5 ovarian = system: OVCAR-5 ovarian
OVCAR-8 ovarian = system: OVCAR-8 ovarian
PC-3 prostate = system: PC-3 prostate
RPMI-8226 leukemia = system: RPMI-8226 leukemia
RXF 393 renal = system: RXF 393 renal
SF-268 CNS = system: SF-268 CNS
SF-295 CNS = system: SF-295 CNS
SF-539 CNS = system: SF-539 CNS
SK-MEL-2 melanoma = system: SK-MEL-2 melanoma
SK-MEL-28 melanoma = system: SK-MEL-28 melanoma
SK-MEL-5 melanoma = system: SK-MEL-5 melanoma
SK-OV-3 ovarian = system: SK-OV-3 ovarian
SN12C renal = system: SN12C renal
SNB-19 CNS = system: SNB-19 CNS
SNB-75 CNS = system: SNB-75 CNS
SR leukemia = system: SR leukemia
SW-620 colon = system: SW-620 colon
T-47D breast = system: T-47D breast
TK-10 renal = system: TK-10 renal
U251 glioblastoma = system: U251 glioblastoma
UACC-257 melanoma = system: UACC-257 melanoma
UACC-62 melanoma = system: UACC-62 melanoma
UO-31 renal = system: UO-31 renal

In the case of `COc1cc2c(c(OC)n1)[C@]1(O)[C@H](O)[C@H](CN(C)C)[C@@H](c3ccccc3)[C@]1(c1ccc(C#N)cc1)O2`, the GI50 ([…]-0 renal) was 18.6 nM, the TGI (786-0 renal) was 77.6 nM and the GI50 (A498 renal) was < 10 nM. For the same compound, the TGI (A498 renal) was 266 nM, the GI50 (A549 NSCLC) was 12 nM and the TGI (A549 NSCLC) was 16000 nM. It also gave a GI50 (ACHN renal) of 10.2 nM, a TGI (ACHN renal) of 48.3 nM and a GI50 (BT-549 breast) of 23.7 nM. For the same compound, the TGI (BT-549 breast) was 95.7 nM, the GI50 (CAKI-1 renal) was < 10 nM and the TGI (CAKI-1 renal) was 41 nM. For the same compound, the GI50 (CCRF-CEM leukemia) was < 10 nM, the TGI (CCRF-CEM leukemia) was 17.8 nM and the GI50 (COLO 205 colon) was < 10 nM. For the same compound, the TGI (COLO 205 colon) was 120 nM, the GI50 (DU-145 prostate) was < 10 nM and the TGI (DU-145 prostate) was 48 nM. For the same compound, the GI50 (EKVX NSCLC) was < 10 nM, the TGI (EKVX NSCLC) was 46.3 nM and the GI50 (HCC-2998 colon) was < 10 nM. The TGI (HCC-2998 colon) was 28.5 nM, the GI50 (HCT-116 colon) was < 10 nM and the TGI (HCT-116 colon) was 26 nM. For the same compound, the GI50 (HCT-15 colon) was 13.1 nM, the TGI (HCT-15 colon) was 99.3 nM and the GI50 (HL-60(TB) leukemia) was < 10 nM. The TGI (HL-60(TB) leukemia) was < 10 nM, the GI50 (HOP-62 NSCLC) was < 10 nM and the TGI (HOP-62 NSCLC) was 48.3 nM. For the same compound, the GI50 (HOP-92 NSCLC) was 19.5 nM, the TGI (HOP-92 NSCLC) was 78.7 nM and the GI50 (HS 578T breast) was < 10 nM. It also gave a TGI (HS 578T breast) of 40.6 nM, a GI50 (HT29 colon) of 22.2 nM and a TGI (HT29 colon) of 15600 nM. For the same compound, the GI50 (IGROV1 ovarian) was < 10 nM, the TGI (IGROV1 ovarian) was 13900 nM and the GI50 (K-562 leukemia) was < 10 nM. The TGI (K-562 leukemia) was 10700 nM, the GI50 (KM12 colon) was < 10 nM and the TGI (KM12 colon) was 72.2 nM. For the same compound, the GI50 (LOX IMVI melanoma) was < 10 nM, the TGI (LOX IMVI melanoma) was 20.5 nM and the GI50 (M14 melanoma) was < 10 nM. For the same compound, the TGI (M14 melanoma) was 38.2 nM, the GI50 (MALME-3M melanoma) was < 10 nM and the TGI (MALME-3M melanoma) was 61.1 nM. For the same compound, the GI50 (MDA-MB-231 breast) was 14.6 nM, the TGI (MDA-MB-231 breast) was 94.8 nM and the GI50 (MDA-MB-435 melanoma) was < 10 nM. For the same compound, the TGI (MDA-MB-435 melanoma) was 583 nM, the GI50 (MDA-MB-468 breast) was < 10 nM and the TGI (MDA-MB-468 breast) was 23.1 nM. For the same compound, the GI50 (MOLT-4 leukemia) was < 10 nM, the TGI (MOLT-4 leukemia) was < 10 nM and the GI50 (NCI-H226 lung) was < 10 nM. The TGI (NCI-H226 lung) was 57.5 nM, the GI50 (NCI-H23 lung) was < 10 nM and the TGI (NCI-H23 lung) was 41.2 nM. For the same compound, the GI50 (NCI-H322M lung) was 13.9 nM, the TGI (NCI-H322M lung) was 55.7 nM and the GI50 (NCI-H460 NSCLC) was < 10 nM. For the same compound, the TGI (NCI-H460 NSCLC) was 23.3 nM, the GI50 (NCI-H522 lung) was < 10 nM and the TGI (NCI-H522 lung) was 33.7 nM. For the same compound, the GI50 (NCI/ADR-RES ovarian) was 138 nM, the TGI (NCI/ADR-RES ovarian) was 3270 nM and the GI50 (OVCAR-3 ovarian) was < 10 nM. The TGI (OVCAR-3 ovarian) was 28.2 nM, the GI50 (OVCAR-4 ovarian) was < 10 nM and the TGI (OVCAR-4 ovarian) was 43.4 nM. The GI50 (OVCAR-5 ovarian) was 11 nM, the TGI (OVCAR-5 ovarian) was 58 nM and the GI50 (OVCAR-8 ovarian) was 20.8 nM. For the same compound, the TGI (OVCAR-8 ovarian) was 10700 nM, the GI50 (PC-3 prostate) was < 10 nM and the TGI (PC-3 prostate) was 2260 nM. The GI50 (RPMI-8226 leukemia) was < 10 nM, the TGI (RPMI-8226 leukemia) was < 10 nM and the GI50 (RXF 393 renal) was < 10 nM. For the same compound, the TGI (RXF 393 renal) was 21.8 nM, the GI50 (SF-268 CNS) was 15.7 nM and the TGI (SF-268 CNS) was 175 nM. For the same compound, the GI50 (SF-295 CNS) was 25.9 nM, the TGI (SF-295 CNS) was 81.9 nM and the GI50 (SF-539 CNS) was < 10 nM. The TGI (SF-539 CNS) was 20.1 nM, the GI50 (SK-MEL-2 melanoma) was < 10 nM and the TGI (SK-MEL-2 melanoma) was 41.3 nM. The GI50 (SK-MEL-28 melanoma) was 19.6 nM, the TGI (SK-MEL-28 melanoma) was 67 nM and the GI50 (SK-MEL-5 melanoma) was < 10 nM. The TGI (SK-MEL-5 melanoma) was 41.4 nM, the GI50 (SK-OV-3 ovarian) was < 10 nM and the TGI (SK-OV-3 ovarian) was 1310 nM. The GI50 (SN12C renal) was < 10 nM, the TGI (SN12C renal) was 54.6 nM and the GI50 (SNB-19 CNS) was 12.4 nM. It also gave a TGI (SNB-19 CNS) of 119 nM, a GI50 (SNB-75 CNS) of 16 nM and a TGI (SNB-75 CNS) of 360 nM. For the same compound, the GI50 (SR leukemia) was 11.7 nM, the TGI (SR leukemia) was 32.8 nM and the GI50 (SW-620 colon) was < 10 nM. The TGI (SW-620 colon) was 10000 nM, the GI50 (T-47D breast) was < 10 nM and the TGI (T-47D breast) was 53.3 nM. It also gave a GI50 (TK-10 renal) of 13.7 nM, a TGI (TK-10 renal) of 46.4 nM and a GI50 (U251 glioblastoma) of 12.6 nM. It also gave a TGI (U251 glioblastoma) of 209 nM, a GI50 (UACC-257 melanoma) of 25.3 nM and a TGI (UACC-257 melanoma) of 420 nM. The GI50 (UACC-62 melanoma) was 11.9 nM, the TGI (UACC-62 melanoma) was 57.5 nM and the GI50 (UO-31 renal) was 21.3 nM. For the same compound, the TGI (UO-31 renal) was 91.6 nM.
